Data taken from the NIST ThermoML archive (doi:10.1021/acs.jced.7b00159).

Conditions: Liquid, Pendant drop shape

CCCCCCCCCCCC [dodecane] + O=C=O
interfacial tension [mN/m]
Conditions	323.15 K	353.15 K
1100 kPa	19.27	16.94
2100 kPa	17.29	16.02
3100 kPa	–	14.66
3600 kPa	14.47	–
4100 kPa	13.55	13.4
5100 kPa	–	11.99
6100 kPa	9.51	10.69
7100 kPa	7.68	9.44
8100 kPa	5.57	8.32
9100 kPa	–	6.96
10100 kPa	–	5.88
11100 kPa	–	4.8

CCCCCCCCCCCCCCCCCCCC [eicosane] + O=C=O
353.15 K
Conditions	interfacial tension [mN/m]
1000 kPa	20.35
2000 kPa	18.99
4000 kPa	16.13
6000 kPa	13.37
8000 kPa	10.34
10000 kPa	7.85
12000 kPa	5.55
14000 kPa	3.71
16000 kPa	2.38

CCCCCCCCCCCCCCCCC [heptadecane] + O=C=O
interfacial tension [mN/m]
Conditions	323.15 K	353.15 K
1100 kPa	–	18.47
1200 kPa	20.95	–
2100 kPa	–	17.15
2600 kPa	18.3	–
3300 kPa	16.99	15.48
4100 kPa	15.49	14.62
5100 kPa	13.95	–
5200 kPa	–	13.38
6100 kPa	11.78	–
6720 kPa	–	11.71
7100 kPa	–	11.26
7300 kPa	9.69	–
8120 kPa	8.52	–
8150 kPa	–	10.09
9300 kPa	–	9.14
10100 kPa	5.08	–
10600 kPa	–	7.78
12600 kPa	–	5.78
14100 kPa	–	4.3
15100 kPa	–	3.57
16200 kPa	–	2.81

CCCCCCCCCCCCCCCC [hexadecane] + O=C=O
Conditions	interfacial tension [mN/m]
323.15 K, 1030 kPa	21.5
323.15 K, 2050 kPa	19.61
323.15 K, 2960 kPa	17.95
323.15 K, 4010 kPa	15.94
323.15 K, 5020 kPa	14.12
323.15 K, 5960 kPa	12.43
323.15 K, 7000 kPa	10.52
323.15 K, 8020 kPa	8.71
323.15 K, 8960 kPa	6.98
323.15 K, 9040 kPa	7.5
323.15 K, 10020 kPa	5.02
353.15 K, 1200 kPa	18.68
353.15 K, 2100 kPa	17.48
353.15 K, 3200 kPa	16.05
353.15 K, 4040 kPa	14.99
353.15 K, 5120 kPa	13.67
353.15 K, 6110 kPa	12.5
353.15 K, 7090 kPa	11.37
353.15 K, 8090 kPa	10.25
353.15 K, 8990 kPa	9.28
353.15 K, 10050 kPa	8.1
353.15 K, 11120 kPa	7.11
353.15 K, 12010 kPa	6.12

CCCCCCCCCCCCCCCCCC [octadecane] + O=C=O
interfacial tension [mN/m]
Conditions	323.15 K	353.15 K
400 kPa	–	20.05
410 kPa	23.35	–
1100 kPa	–	19.16
1300 kPa	21.23	–
2000 kPa	18.53	–
2200 kPa	–	17.73
2670 kPa	17.13	–
3200 kPa	15.63	–
3300 kPa	–	16.22
4000 kPa	14.12	–
4180 kPa	–	15.13
5100 kPa	11.94	–
5300 kPa	–	13.86
6150 kPa	–	12.92
6250 kPa	9.84	–
7000 kPa	8.65	–
7200 kPa	–	11.8
8100 kPa	–	10.68
8150 kPa	5.07	–
9100 kPa	3.15	–
9300 kPa	–	9.66
10100 kPa	1.83	8.87
11100 kPa	–	7.66
12100 kPa	–	6.63
13000 kPa	–	5.74
14000 kPa	–	4.91
15000 kPa	–	4.05
16300 kPa	–	3.08
17400 kPa	–	2.49

CCCCCCCCCCCCCC [tetradecane] + O=C=O
interfacial tension [mN/m]
Conditions	323.15 K	353.15 K
1050 kPa	20.79	–
1200 kPa	–	18.19
2100 kPa	–	17.01
2110 kPa	18.89	–
3050 kPa	17.05	–
3200 kPa	–	15.62
3950 kPa	15.41	–
4040 kPa	–	14.48
5020 kPa	13.51	–
5120 kPa	–	13.21
5960 kPa	11.59	–
6110 kPa	–	12.2
7030 kPa	9.79	–
7090 kPa	–	10.94
8000 kPa	8.27	–
8090 kPa	–	9.9
8940 kPa	6.5	–
9020 kPa	6.35	–
10050 kPa	3.98	7.61
11120 kPa	–	6.5
12010 kPa	–	5.5

CCCCCCCCCCCCCCCCCCC [nonadecane] + O=C=O
interfacial tension [mN/m]
Conditions	323.15 K	353.15 K
1100 kPa	–	19.52
2060 kPa	–	18.23
2400 kPa	20.57	–
3100 kPa	–	16.88
3200 kPa	18.91	–
4140 kPa	–	15.58
4200 kPa	17.25	–
5050 kPa	15.27	–
5140 kPa	–	14.35
6060 kPa	–	13.27
6150 kPa	12.93	–
7100 kPa	11.35	–
7120 kPa	–	12.06
8050 kPa	–	11.03
8200 kPa	9.61	–
9200 kPa	7.78	9.76
10000 kPa	6.39	–
10020 kPa	–	8.94
11100 kPa	–	7.87
12000 kPa	–	7
13070 kPa	–	5.97
14040 kPa	–	5.08

CCCCCCCCCC [decane] + O=C=O
interfacial tension [mN/m]
Conditions	323.15 K	353.15 K
900 kPa	18.82	–
1200 kPa	–	16.45
2100 kPa	16.35	15.25
2990 kPa	14.77	–
3020 kPa	–	14.07
4100 kPa	12.56	12.52
5100 kPa	–	11.28
6100 kPa	8.43	9.86
7100 kPa	6.85	–
7110 kPa	–	8.6
8100 kPa	4.89	7.85
9100 kPa	–	5.91
10100 kPa	–	4.65

CCCCCCCCCCCCC [tridecane] + O=C=O
interfacial tension [mN/m]
Conditions	323.15 K	353.15 K
1100 kPa	20	–
1500 kPa	–	17.72
2100 kPa	18.27	–
2600 kPa	–	16.09
4100 kPa	14.42	14.09
5100 kPa	12.93	12.85
6100 kPa	11.47	12.02
7100 kPa	9.42	10.41
8100 kPa	–	9.58
8600 kPa	6.83	–
9100 kPa	–	8.18
9600 kPa	4.91	–
10100 kPa	–	7.07
10600 kPa	2.83	–
11100 kPa	–	6.1
12100 kPa	–	4.84
13100 kPa	–	3.89
14100 kPa	–	3.14
15100 kPa	–	2.21
16100 kPa	–	1.68
17100 kPa	–	1.14

CCCCCCCCCCCCCCC [pentadecane] + O=C=O
interfacial tension [mN/m]
Conditions	323.15 K	353.15 K
1050 kPa	21.31	–
1500 kPa	–	18.19
2100 kPa	–	17.27
2130 kPa	19.32	–
3100 kPa	17.53	16.23
4050 kPa	15.63	–
4200 kPa	–	14.66
5130 kPa	13.49	–
5400 kPa	–	13.29
6100 kPa	11.98	12.36
7100 kPa	10.16	–
7900 kPa	–	10.2
8100 kPa	8.46	–
8900 kPa	–	8.9
9000 kPa	6.66	–
9600 kPa	5.32	–
10000 kPa	–	7.87
10100 kPa	4.72	–
11100 kPa	–	6.78
12100 kPa	–	5.82
13100 kPa	–	4.66
14100 kPa	–	3.75
15100 kPa	–	3.06

CCCCCCCCCCC [undecane] + O=C=O
interfacial tension [mN/m]
Conditions	323.15 K	353.15 K
1030 kPa	19.26	–
1100 kPa	–	17.09
2100 kPa	17.25	15.83
3100 kPa	15.05	14.38
4100 kPa	13.12	13.17
5100 kPa	10.98	11.69
6100 kPa	8.68	10.45
7100 kPa	7.2	9.31
8100 kPa	4.95	7.45
9100 kPa	–	6.45
10100 kPa	–	5.59
11100 kPa	–	4.37
12100 kPa	–	3.39
